Experimental data reported in US20200253996A1, “TCTP INHIBITING AGENTS FOR THE TREATMENT OF PROLIFERATIVE DISEASES, INFECTIOUS DISEASES, ALLERGIES, INFLAMMATIONS AND/OR ASTHMA” (UNIVERSITE PARIS-SUD, priority 2017, published 2020).
Where two headings read alike, the source gives them in different places.

What was measured:
human HCT116 cells = assay: Inhibition of cell growth, CellTiter Glo assay; conditions: for GI50: Homo sapiens
Procedure: The viability and proliferation of human HCT116 cells is measured using the “CellTiter Glo®” assay (Promega), which is a luminescent measure of the number of living cells. Sertraline and AC070 were tested at 10 concentrations and results are expressed as GI50, TGI, LC50 and IC50 relative to control cells (DMSO).
The CellTiter-Glo® assay is a homogeneous method for determining the number of viable cells in culture based on a quantification of the ATP present, an indicator of metabolically active cells. The homogeneous test procedure involves the addition of a single reagent (the CellTiter-Glo® reagent) directly to the cultured cells in serum-enriched medium.
The results of the test are reported in the following Tables 2 and 3 (Table 2: sertraline and Table 3: AC070): […]

p53 protein = assay: Overexpression of p53 protein, Western blot; type: cell-based; conditions: 10 μM
Procedure: The compound AC014 is capable of inducing overexpression of p53 (FIG. 1).
The Western blot was carried out according to the protocol described in the following article: Amson R, Pece S, Lespagnol A, Vyas R, Mazzarol G, Tosoni D, Colaluca I, Viale G, Rodrigues-Ferreira S, Wynendaele J, Chaloin O, Hoebeke J, Marine J C, Di Fiore P P, Telerman A. Nat Med. 2011 Dec. 11; 18(1):91-9.
The following antibodies were used in the Western blot assay: anti-TCTP antibodies were generated against the whole human-derived TCTP. These polyclonal antibodies were purified by affinity column affinity coupled to TCTP (Agro-Bio). Anti-P53 1C12 mouse antibody (Cell Signaling Technology) was used at a dilution of 1/1000.
Secondary antibodies (antirabbit and antimouse) conjugated to HRP were used at a dilution of 1/5000 to visualize the signals by Western blots.

TCTP = target: T1, TCTP (Homo sapiens, UniProt P13693); conditions: prior art section; read-out: affinity for TCTP, Kd; cited from earlier work
T1 sequence (P13693 1-172): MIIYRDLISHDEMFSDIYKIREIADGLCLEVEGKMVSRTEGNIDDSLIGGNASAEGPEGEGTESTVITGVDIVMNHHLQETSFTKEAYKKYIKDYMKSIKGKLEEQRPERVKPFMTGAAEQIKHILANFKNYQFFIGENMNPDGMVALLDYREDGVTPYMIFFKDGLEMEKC

[1] = humans; cited from earlier work

CN[C@H]1CC[C@@H](c2ccc(Cl)c(Cl)c2)c2ccccc21 [sertraline, reference compound]
TGI50 1 (human HCT116 cells; HCT116, CellTiter Glo, determination 1): 0.203 µM | TGI50 2 (human HCT116 cells; HCT116, CellTiter Glo, determination 2): 0.229 µM | TGI50 3 (human HCT116 cells; HCT116, CellTiter Glo, determination 3): 0.253 µM | TGI50 Mean (human HCT116 cells; HCT116, CellTiter Glo, mean): 0.228 µM | TGI50 Median (human HCT116 cells; HCT116, CellTiter Glo, median): 0.227 µM | GI50 (human HCT116 cells; HCT-116, read-out: GI50 1): 125 nM | GI50 (human HCT116 cells; HCT-116, read-out: GI50 2): 141 nM | GI50 (human HCT116 cells; HCT-116, read-out: GI50 3): 159 nM | GI50 (human HCT116 cells; HCT-116, read-out: GI50 Mean): 142 nM | GI50 (human HCT116 cells; HCT-116, read-out: GI50 Median): 140 nM | GI50 (human HCT116 cells; HCT-116, read-out: cell growth inhibition constant GI50): 141 nM | expression of the p53 protein (p53 protein): induced | Kd (TCTP): 198000 nM | maximum tolerated dose (MTD) [1]: 400 mg/day
